From ChEMBL document CHEMBL1201862, “PubChem BioAssay data set” (2004)
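Cultured in 96-well plates, cells were exposed to test compound for 48 hours across five concentrations. GI50: concentration for 50% inhibition of growth.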 The source made the active and inactive calls. Cut-off read from the data, not from the text of the source: active = GI50 up to about 1.1 µM and inactive = higher.

How the values were obtained:
Test in all cases: NCI anticancer screen, dose series, 48 h
[1] = tested on: MCF7
[2] = tested on: HCC 2998
[3] = tested on: PC-3
[4] = tested on: SK-MEL-28
[5] = tested on: KM12
[6] = tested on: DU-145
[7] = tested on: MDA-MB-435
[8] = tested on: M14
[9] = tested on: MOLT-4
[10] = tested on: EKVX
[11] = tested on: SR
[12] = tested on: SNB-75
[13] = tested on: IGROV-1
[14] = tested on: HOP-92
[15] = tested on: T47D
[16] = tested on: HOP-62
[17] = tested on: HL-60
[18] = tested on: 786-0
[19] = tested on: Malme-3M
[20] = tested on: A498

Measured: GI50

CC1=CC(C/C(C)=C/COc2ccc3ccc(=O)oc3c2)OC1=O (centres undefined)
inactive: [1] > 100 µM | [2] > 100 µM | [3] 68.9 µM | [4] > 100 µM | [5] > 100 µM | [6] > 100 µM | [7] 54.5 µM | [8] > 100 µM | [9] 49.8 µM | [10] > 100 µM | [11] 95.1 µM | [12] > 100 µM | [13] > 100 µM | [14] > 100 µM | [15] > 100 µM | [16] > 100 µM | [17] 59.4 µM | [18] > 100 µM

NC(C(=O)OC(=O)c1ccccc1)C(=O)OC(=O)c1ccccc1
inactive: [19] > 100 µM | [1] > 100 µM | [3] > 100 µM | [20] > 100 µM | [4] > 100 µM | [5] > 100 µM | [6] > 100 µM | [7] > 100 µM | [8] > 100 µM | [9] > 100 µM | [10] > 100 µM | [12] > 100 µM | [15] > 100 µM | [16] > 100 µM | [18] > 100 µM

Oc1ccc(-c2nc(-c3cccnc3)c(-c3ccc(F)cc3)[nH]2)cc1
inactive: [19] 17.5 µM | [1] 16 µM | [2] 19.8 µM | [3] 16.7 µM | [4] 19.9 µM | [5] 18.2 µM | [6] 24 µM | [7] 16.2 µM | [8] 17.7 µM | [9] 10 µM | [10] 19.3 µM | [11] 16.9 µM | [12] 18.2 µM | [13] 17.5 µM | [15] 17.4 µM | [16] 21.6 µM | [17] 15.8 µM | [18] 22.9 µM

CC1(C)CNC(=O)C2(CCCO2)CNC(C)(C)CNC(=O)C2(CCCO2)CN1 (centres undefined)
inactive: [19] > 10 µM | [1] > 10 µM | [2] > 10 µM | [3] > 10 µM | [4] > 10 µM | [5] > 10 µM | [6] > 10 µM | [7] > 10 µM | [8] > 10 µM | [9] > 10 µM | [11] > 10 µM | [12] > 10 µM | [13] > 10 µM | [14] > 10 µM | [15] > 10 µM | [16] > 10 µM | [17] > 10 µM | [18] > 10 µM

CC1=CC(O)CC(C)(C)C1/C=C/C(C)=C/C=C/C(C)=C/C=C/C=C(C)/C=C/C=C(C)/C=C/C1=C(C)CC(O)CC1(C)C (centres undefined)
inactive: [19] 15.6 µM | [1] 27.7 µM | [2] 83.9 µM | [3] 23.2 µM | [4] 17.5 µM | [5] 38.6 µM | [6] 7.43 µM | [7] 17.5 µM | [8] 13.8 µM | [9] 20.9 µM | [10] 79.3 µM | [11] 15.7 µM | [12] 26.5 µM | [13] 26.5 µM | [14] 21.4 µM | [15] 20 µM | [17] 51.6 µM | [18] 19.1 µM

CN(C)CCNc1ncnc2[nH]c(-c3ccc4ccccc4c3)nc12
inactive: [19] > 100 µM | [1] > 100 µM | [2] > 100 µM | [3] > 100 µM | [4] > 100 µM | [5] > 100 µM | [6] > 100 µM | [7] > 100 µM | [8] > 100 µM | [9] > 100 µM | [10] > 100 µM | [11] > 100 µM | [13] > 100 µM | [15] > 100 µM | [16] > 100 µM | [17] > 100 µM | [18] > 100 µM

COC(=O)c1ccc(/C=C2\Oc3cc(O)ccc3C2=O)cc1
inactive: [1] 38.5 µM | [2] > 100 µM | [3] 91.4 µM | [4] 72.8 µM | [5] 49.3 µM | [6] > 100 µM | [7] > 100 µM | [8] 83.8 µM | [9] 43.7 µM | [10] 49.2 µM | [11] 42.3 µM | [12] 39.4 µM | [13] > 100 µM | [15] 54.3 µM | [16] > 100 µM | [17] 44.2 µM | [18] > 100 µM

O=C1/C(=C/c2ccccc2S)N=C(c2ccccc2)N1c1ccc2c(c1)Sc1cc(N3C(=O)/C(=C/c4ccccc4S)N=C3c3ccccc3)ccc1N2
inactive: [1] 21 µM | [2] 20.5 µM | [3] 21.4 µM | [20] 19.1 µM | [4] 21.7 µM | [5] 34 µM | [6] 19.2 µM | [7] 21.1 µM | [8] 17.9 µM | [9] 19.6 µM | [10] 20.7 µM | [11] 15.7 µM | [12] 15.8 µM | [13] 15.7 µM | [14] 14.9 µM | [15] 22.7 µM | [16] 25.6 µM | [18] 22.9 µM
